Reference: patent US20110160303A1, “N-ALKYLCARBONYL-AMINO ACID ESTER AND N-ALKYLCARBONYL-AMINO LACTONE COMPOUNDS AND THEIR USE” (Edward Tak WEI, priority 2005, published 2011)
“Also recorded” adds a separate entry of the source. Blank lines part the entries; values can stand above or below the compound they belong to.

Columns and labels:
asthma = assay: Study 10: adult-onset asthma, throat irritation and cough; format: in vivo, human
Procedure: A person had adult-onset asthma for 20 years. Triggers for attacks were tobacco smoke, dust, and changes in air temperature. They used Foradil® (formoterol fumarate) and Asmanex® (mometasone fuorate) twice a day to control their asthma, and monitored their pulmonary function with a portable device for measuring peak expiratory flow. They had daily episodes of both productive and non-productive cough. In 5 trials, when they felt throat irritation and a desire to cough, placement of 1 to 3 mg of (R)-2-[((1R,2S,5R)-2-isopropyl-5-methyl-cyclohexanecarbonyl)-amino]-propionic acid ethyl ester) provided rapid relief and was described as soothing and removed “tightness” in the chest. Peak expiratory flow improved from 320 L/min to 370 L/min. In 3 episodes where the test substance was administered in the midst of a productive cough spell, no significant effects were observed and the subject said that the applied compound had been expectorated. The subjective response to the long-acting NACE compound was definitely favourable. The subject remarked that the best time to use the NACE compound was after inhaling the crystalline Foradil® because this inhaled drug irritated their throat. Menthol lozenges were not effective for their airway discomfort because they only had mild anti-irritant actions and the sugar content of the lozenges interfered with their appetite for food.

skin above the upper lip = assay: Cooling sensation on facial skin, ointment applied to skin above the upper lip; format: in vivo, human; design: key to refreshing cooling and absence of skin irritation or eye irritation (“perfect cool”): (*) denotes compounds with refreshing cooling and absence of skin irritation or eye irritation after facial skin or periorbital applications; a “perfect cool.”; settings: for Duration of Skin Cooling: 40 mM (1% wt/vol) ointment; for Duration of Skin Cooling / Duration of Action On-Off (minutes): On (onset) / Duration of Action On-Off (minutes): duration (offset minus onset) / Duration of Action On-Off (minutes): Off (offset): skin above upper lip; for Duration of Action On-Off (minutes): On (onset): 40 mM (~1% wt/vol) Aquaphor ointment, 40 to 70 mg, time to reach 2 units of coolness; for Duration of Action On-Off (minutes): duration (offset minus onset) / Duration of Action On-Off (minutes): Off (offset): 40 mM Aquaphor ointment; for Duration of Action On-Off (minutes): Off (offset): time when coolness drops below 2 units
From the text: A reliable place for topical application is the skin above the upper lip (above the vermilion border of the lips), on the philtrum, lateral to the philtrum until the nasolabial folds, and on the lower nostrils (subnasale). This part of the face is known to be densely innervated with cold receptors, second only to the surfaces of the eyeball and anogenitalia. A second location is on or below the malar eminence (cheekbone). The skin above the cheekbone is thicker than above the lips, and therefore has a higher threshold for activation. At both loci, tingling, cool and cold sensations in the skin may be experienced and rated for time of onset and intensity.
The intensity of the subjective skin sensation is rated as 0, 1, 2 or 3 with: 0 as no change; 1 as slight coolness, cold, or tingling; 2 as clear-cut signal of coolness, cold, or tingling; and 3 as robust cooling or cold. The intervals for recording sensations are 5 to 10 minutes, until two successive zeroes are obtained. The results (shown in FIGS. 1 and 2) are averaged values of 4 to 6 separate trials in the same individual. The data are plotted using SigmaPlot® (Systat Software, Point Richmond Calif.) and a smoothing function with a negative exponential was used for analysis and statistical fit of the results. Confirmatory trials of cooling action of the long-acting NACE compounds were obtained in 2 to 4 individuals but not quantified for some because of the large number of chemicals that were evaluated.
(§1) The onset of drug action is taken as the time to reach 2 units of coolness intensity, and offset of drug action is the time when coolness intensity drops below 2, after previously surpassing 2 units. The duration of cooling action is defined as the offset time minus the onset time. […] The quality of the sensation is noted, for example, as pure refreshing coolness, or if the sensation is accompanied by irritation (stinging or burning). The quality of the sensation is not rated for intensity.
For bioassay on the skin, approximately 30 mg was stirred and dissolved in 3 g of warm liquid Aquaphor® ointment to a yield a 40 mM (˜1% wt/vol) ointment. The exact amount was adjusted so that the molar equivalent was about 35 to 40 mM. After cooling, 40 to 70 mg of the solid ointment was placed on the tip of a plastic stick and applied to the skin above the upper lip, on the philtrum, and lateral to the philtrum, up to the nasolabial folds, of test subjects and the onset and duration of cooling sensations noted.
The intensity of the subjective skin sensation was rated as 0, 1, 2 or 3 with: 0 as no change; 1 as slight coolness, cold, or tingling; 2 as clear signal of coolness, cold, or tingling; and 3 as robust cooling or cold. The intervals for recording sensations were 5 to 10 minutes, until two successive zeroes were obtained. The results (shown in FIGS. 1 and 2) are averaged values of 4 to 6 separate trials in the same individual. The data are plotted using SigmaPlot® (Systat Software, Point Richmond, Calif., USA) and a smoothing function with a negative exponential was used for analysis and statistical fit of the results.
as §1, with “was” for “is”, “was also noted: such” for “is noted, for example,”
Test compounds were singly applied to the skin above the upper lips at a 40 to 70 mg dose of a 1% wt/vol ointment.

oral cavity = assay: Oral cavity test, substance placed on dorsal surface of the tongue; format: in vivo, human
Procedure: The subject is instructed to close and hold the substance in the mouth for at least 10 seconds and not to swallow. The description of sensations is then recorded at 5 minute intervals.
The compounds of Formula (1) and (2) are white crystalline solids at room temperatures. These compounds were tested as such, or mixed 1:1 with powdered or granulated sugar. The test substances were applied at 1 to 5 mg on the mid-point of the dorsal surface of the tongue using a metal spatula or a plastic applicator. After depositing the test substance on the tongue, the subject was instructed to keep the mouth closed and allow the fluids of the mouth to inter-mix with the test substance and to distribute it to the back of the mouth (oropharynx). The presence and duration of subjective sensations from the mouth was then noted.
In normal subjects, the effects of the D-Ala methyl and ethyl ester compounds falling within Formula (1) ((R)-2-[((1R,2S,5R)-2-isopropyl-5-methyl-cyclohexanecarbonyl)-amino]-propionic acid methyl or ethyl ester)) were examined. Three doses of 1, 2 and 4 mg per application were examined and compared to a similar dose of the L-Ala methyl or ester analog ((S)-2-[((1R,2S,5R)-2-isopropyl-5-methyl-cyclohexanecarbonyl)-amino]-propionic acid methyl or ethyl ester). At the 2 or 4 mg dose, all compounds produced pleasant and robust cooling sensations on the tongue, extending down to the back of throat, and lasted for about 30 minutes and longer. The onset effect was usually within 30 seconds of application.

tongue [1] = settings: Watson et al., filter paper on tongue, 6 subjects; cited from earlier work
periorbital skin = assay: Irritancy near the eyes, ointment applied to periorbital skin; format: in vivo, human; settings: Table 1 summary
From the text: The ointment is also applied to the periorbital skin (upper and lower eyelids and on skin adjacent to the lateral canthus) for tests of irritancy near the eyes, and the subject is asked if irritation is present or absent. The intensity of the eye sensation is not rated. For tests of irritancy near the eyes, the ointment was applied to the periorbital skin (upper and lower eyelids and on skin adjacent to the lateral canthus), and the subject asked if irritation is present or absent. The intensity of the eye sensation is not rated, but just noted as being present or absent.

cough = assay: Study 8: cough in cigar smokers, powder on the tongue; format: in vivo, human
From the text: Two males, were inveterate cigar smokers consuming 3 to 5 cigars per day. They both had frequent bouts of dry, non-productive, hacking coughs. At night, there were episodes of insomnia characterized by difficulties in breathing, an oppressive pressure on the chest and throat, and subsequent awakening with sensations of choking. During the day, a frequent and persistent sensation was that of tickling, irritative feelings in the back of the throat that led to coughing.
In 20 trials, 10 trials per subject, two mg of 95%+pure powder of a D-Ala ethyl compound falling within Formula (1) (R)-2-[((1R,2S,5R)-2-isopropyl-5-methyl-cyclohexanecarbonyl)-amino]-propionic acid ethyl ester) was placed on the mid-portion of the tongue of these two subjects. Both subjects reported relief from the desire to cough within 1 minute after application. Sensations of robust coolness in the back of the throat was noted and lasted for about 30 minutes. Applications of similar amounts of powdered sugar were not effective, but the placebo could be clearly distinguished from the active compound because of the absence of cooling sensations.
After application of test substance, the absence of irritation and itching at the back of the throat (cough signals) lasted for about 4 to 5 hours and the individual was observed not to cough for 6 to 8 hours. […] This therapeutic effect occurred when the test substance no longer elicited cooling sensations in the oropharynx.

asthma cough = assay: Study 9: asthmatic cough, powder on the tongue; format: in vivo, human; settings: continued use
From the text: A person with a documented 31-year history of asthma attacks volunteered to test one of the compounds falling within Formula (1). They were extremely sensitive to agents such as tobacco smoke, dust, pollen, odors, down/woolen materials, house cleansing products, pets, and sudden change of air temperature, and reacted with violent coughing, mucus secretions, wheezing, choking, and shortness of breath. At the time of this trial, they were taking these medications for their condition: theophylline, Allegra®, Advair®, Intal®, and Singulair®. In 5 trials, during a coughing spree, they placed one to two mg of 95%+ pure powder of a D-Ala ethyl ester falling within Formula (1) ((R)-2-[((1R,2S,5R)-2-isopropyl-5-methyl-cyclohexanecarbonyl)-amino]-propionic acid ethyl ester)) on the mid-portion of their tongue. They reported a soothing and cool sensation with a slight taste similar to Eucalyptus oil in their mouth and throat. Coughing stopped after 3 to 5 minutes and breathing was normal. […] In three trials when the compound was applied at night, they slept through the night without being awakened by cough. Their spouse remarked that, in over 30 years of marriage, this was the first time that they had seen an effective medication for their cough. […]

[2] = Octanol/water partition coefficient; format: physicochemical
Procedure: The octanol/water partition coefficients (given in log P units) for a number of compounds were determined and are shown in Table 7, together with the threshold for cooling on the tongue tested at 40 mM. […] A longer duration of action was not precisely matched with log P values.

tongue [3] = assay: Threshold for cooling on the tongue; format: in vivo, human; settings: threshold for cooling on the tongue
Procedure: Watson et al. (U.S. Pat. No. 4,178,459) tested the properties of N-substituted p-menthane carboxamides on volunteers by putting filter paper (1×1 cm), impregnated with a known amount of compound, onto the dorsal surface of the tongue of the test subject. After 30 seconds, the subject was required to report presence or absence of a cooling effect. […] The average threshold of (−)-menthol for 6 subjects was 0.25 μg, but there was a 100-fold variation in individual sensitivity. As noted above, coolness signals detected from the dorsal surface of the tongue may be confounded by gustatory, olfactory, and other variables, as well as by dilution from saliva. The octanol/water partition coefficients (given in log P units) for a number of compounds were determined and are shown in Table 7, together with the threshold for cooling on the tongue tested at 40 mM. […] A longer duration of action was not precisely matched with log P values.

TRP-M8 = biological target: T1, TRP-M8 (Homo sapiens, UniProt Q7Z2W7); settings: cited from earlier work
T1 construct: expressed in transfected cells
T1 sequence (Q7Z2W7 whole entry, species assumed): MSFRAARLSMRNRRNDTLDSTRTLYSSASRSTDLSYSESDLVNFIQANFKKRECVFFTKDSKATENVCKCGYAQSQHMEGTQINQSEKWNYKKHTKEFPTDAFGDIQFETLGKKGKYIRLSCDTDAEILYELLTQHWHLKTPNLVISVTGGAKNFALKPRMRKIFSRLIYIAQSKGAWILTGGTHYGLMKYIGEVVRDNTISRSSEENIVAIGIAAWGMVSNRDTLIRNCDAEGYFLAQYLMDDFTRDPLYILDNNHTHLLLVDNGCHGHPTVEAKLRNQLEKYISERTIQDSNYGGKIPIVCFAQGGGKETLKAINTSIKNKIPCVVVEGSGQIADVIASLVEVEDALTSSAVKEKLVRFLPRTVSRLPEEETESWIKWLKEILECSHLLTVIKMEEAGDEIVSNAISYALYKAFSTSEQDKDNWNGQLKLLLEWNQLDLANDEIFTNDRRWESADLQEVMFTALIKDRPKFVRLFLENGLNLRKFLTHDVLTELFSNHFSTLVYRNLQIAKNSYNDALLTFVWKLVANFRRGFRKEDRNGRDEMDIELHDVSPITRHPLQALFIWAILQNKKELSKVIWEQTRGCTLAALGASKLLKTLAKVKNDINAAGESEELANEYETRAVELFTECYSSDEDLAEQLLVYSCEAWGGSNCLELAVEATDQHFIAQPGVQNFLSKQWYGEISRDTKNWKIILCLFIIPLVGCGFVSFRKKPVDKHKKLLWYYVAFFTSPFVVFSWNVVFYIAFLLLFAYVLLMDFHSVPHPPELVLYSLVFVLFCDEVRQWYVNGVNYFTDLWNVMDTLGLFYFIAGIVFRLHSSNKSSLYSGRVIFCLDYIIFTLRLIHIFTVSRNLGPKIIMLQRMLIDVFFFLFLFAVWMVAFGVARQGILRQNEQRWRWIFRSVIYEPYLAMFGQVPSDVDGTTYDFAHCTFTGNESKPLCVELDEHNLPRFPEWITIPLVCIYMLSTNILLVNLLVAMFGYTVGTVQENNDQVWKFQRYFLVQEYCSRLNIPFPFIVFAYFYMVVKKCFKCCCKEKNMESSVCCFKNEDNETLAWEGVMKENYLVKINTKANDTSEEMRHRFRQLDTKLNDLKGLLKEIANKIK

SMILES: CCOC(=O)[C@@H](C)NC(=O)[C@@H]1C[C@H](C)CC[C@H]1C(C)C [(R)-2-[((1R,2S,5R)-2-isopropyl-5-methyl-cyclohexanecarbonyl)-amino]-propionic acid ethyl ester]
Peak expiratory flow (asthma; 1 to 3 mg, improved from 320 L/min): 370 L/min | relief of throat irritation, desire to cough and airway discomfort (asthma; asthmatic): rapid relief

SMILES: CC(C)[C@@H]1CC[C@@H](C)C[C@H]1O [(−)-menthol, 1R-(1α-2β-5α)-5-methyl-2-(1-methylethyl)cyclohexanol, reference compound]
Duration of Skin Cooling (skin above the upper lip): 0.3 h | Acts for >1 hour at 40 mM (skin above the upper lip; Table 1 summary): no | Cooling on skin of face (skin above the upper lip; Table 1 summary): yes | “perfect” cooling experience (skin above the upper lip; Table 1 summary): no | Cooling on tongue (oral cavity; Table 1 summary): yes | average threshold for cooling on the tongue (tongue [1]): 0.25 µg | Eye Irritancy (periorbital skin): yes

SMILES: CCOC(=O)[C@@H](C)NC(=O)[C@@H]1C[C@H](C)CC[C@H]1C(C)C [D-Ala Et Ester, (R)-2-[((1R,2S,5R)-2-isopropyl-5-methyl-cyclohexanecarbonyl)-amino]-propionic acid ethyl ester]
Duration of Skin Cooling (skin above the upper lip): 2.4 h | Duration of Action On-Off (minutes): On (onset) (skin above the upper lip): 1 min | Duration of Action On-Off (minutes): duration (offset minus onset) (skin above the upper lip): 142 min | Duration of Action On-Off (minutes): Off (offset) (skin above the upper lip): 143 min | refreshing cooling and absence of skin irritation or eye irritation (“perfect cool”) (skin above the upper lip; after facial skin or periorbital applications): D-Ala Et Ester (*) | duration of cooling sensations on the tongue (oral cavity; dose of 1 to 2 mg, normal subjects): about 30 minutes | time the desire to cough was removed (cough; after 4 or 6 applications within 2 days, continued smoking): at least 5 days | duration of robust coolness in the back of the throat (cough; two mg powder on tongue): about 30 minutes | time to relief from the desire to cough (cough; two mg powder on tongue, 20 trials in 2 subjects): ≤ 1 min | recurrence of asthmatic coughing attacks (asthma cough): have not recurred with any severity for one month

logP [2]: 5.3
SMILES: COc1ccc(NC(=O)C2CC(C)CCC2C(C)C)cc1 (stereo not shown) [WS-12, N-p-methoxyphenyl-p-menthane-carboxamide, reference compound]
Duration of Action On-Off (minutes): On (onset) (skin above the upper lip): 13 min | Duration of Action On-Off (minutes): duration (offset minus onset) (skin above the upper lip): 25 min | Duration of Action On-Off (minutes): Off (offset) (skin above the upper lip): 38 min | Threshold tongue (tongue [3]): 0.2 µg | potency at TRP-M8 (TRP-M8): more potent at TRP-M8 than WS-5; also recorded: potent
